Values joined by “and” are separate entries in the source; they are usually repeats but may differ in a detail not shown here. Equal entries are not always repeated.
Experiment: Dynamic light scattering: vesicle size
Format: physicochemical
Conditions: for Size [nm]: DSPC/Chol/DODAP/PEG-CerC14 20/45/25/10 mol %, initial oligonucleotide-to-lipid 0.23 mg/mg, number-averaged
Method: Dynamic light scattering. Sizes were determined by dynamic light scattering using a NICOMP 370 particle sizer (Nicomp Particle Sizing Inc., Santa Barbara, Calif.). Throughout the application, number-averaged sizes are presented, which were obtained by a cumulant fit from the experimental correlation functions. The polydispersity is expressed as the half-width at half-height of a monomodal Gaussian size distribution. The viscosity of the ethanol/citrate buffer was determined using an Ubelohde-type viscometer (Cannon 50). […] The zeta potential was determined by electrophoretic light scattering using a Coulter light scattering instrument (DELSA, Coulter Electronics Inc., FL).

5′-TAACGTTGAGGGGCAT-3′ (listed as DNA, chemistry not given here) [INX-6295]
Average size [nm] (2.5 mol % PEG-CerC14, 25% ethanol, initial oligonucleotide-to-lipid 0.037 mol/mol): 125 ± 35 (108 ± 26) nm | Average size [nm] (2.5 mol % PEG-CerC14, 40% ethanol, initial oligonucleotide-to-lipid 0.037 mol/mol, listed as c-myc): 131±40 nm and 131 ± 40 (108 ± 26) nm | Average size [nm] (5 mol % PEG-CerC14, 40% ethanol, initial oligonucleotide-to-lipid 0.037 mol/mol): 126 ± 36 (107 ± 22) nm | Average size [nm] (10 mol % PEG-CerC14, 25% ethanol, initial oligonucleotide-to-lipid 0.037 mol/mol): 92 ± 18 (93 ± 18) nm | Average size [nm] (10 mol % PEG-CerC14, 40% ethanol, initial oligonucleotide-to-lipid 0.037 mol/mol, listed as c-myc): 100±26 nm and 100 ± 26 (93 ± 18) nm | Average size [nm] (DSPC/Chol/DODAP liposomes (no modified lipid), 0% EtOH [v/v], molar ODN/lipid 0.035, pH 4): 148 ± 56 nm | Average size [nm] (DSPC/Chol/DODAP liposomes (no modified lipid), 20% EtOH [v/v], molar ODN/lipid 0.035, pH 4): 226 ± 104 nm | Average size [nm] (DSPC/Chol/DODAP liposomes (no modified lipid), 30% EtOH [v/v], molar ODN/lipid 0.035, pH 4): 470 ± 244 nm | Vesicle Size (nm) (Ex. 2 procedure, initial drug/lipid ratio 0.1): 106 nm | Vesicle Size (nm) (Ex. 2 procedure, initial drug/lipid ratio 0.2): 119 nm | Size [nm] (OGP 30 mM in place of ethanol): 65 ± 12 nm | Size [nm] (OGP 35 mM in place of ethanol): 100 ± 22 nm | Size [nm] (OGP 40 mM in place of ethanol): 145 ± 38 nm | Vesicle Size (nm) (citrate buffer 50 mM, initial drug/lipid 0.1): 80 nm | Vesicle Size (nm) (citrate buffer 100 mM, initial drug/lipid 0.1): 90 nm | Vesicle Size (nm) (citrate buffer 200 mM, initial drug/lipid 0.1): 93 nm | Vesicle Size (nm) (citrate buffer 300 mM, initial drug/lipid 0.1): 106 nm | Vesicle Size (nm) (incubation temp 40 °C, 1 hour): 109 nm | Vesicle Size (nm) (incubation temp 60 °C, 1 hour): 140 nm | Vesicle Size (nm) (incubation temp RT(20–22) °C, 1 hour): 114 nm | Vesicle Size (nm) (initial EtOH 33%, initial drug/lipid 0.2): 115 nm | Vesicle Size (nm) (initial EtOH 36%, initial drug/lipid 0.1): 110 nm | Vesicle Size (nm) (initial EtOH 40%, initial drug/lipid 0.2): 114 nm | Vesicle Size (nm) (initial EtOH 43%, initial drug/lipid 0.1): 116 nm | Vesicle Size (nm) (initial EtOH 43%, initial drug/lipid 0.2): 105 nm | Vesicle Size (nm) (initial EtOH 45%, initial drug/lipid 0.1): 108 nm | size and polydispersity of liposomes (initial ODN-to-lipid weight ratio of 0.2): 110±30 nm | Vesicle Size (nm) (oligo stock 10 mg/ml, initial drug/lipid 0.1): 106 nm | Vesicle Size (nm) (oligo stock 20 mg/ml, initial drug/lipid 0.1): 112 nm | Vesicle Size (nm) (oligo stock 30 mg/ml, initial drug/lipid 0.1): 110 nm | Vesicle Size (nm) (oligo stock 40–50 mg/ml, initial drug/lipid 0.1): 106 nm
